Earlier results, collected in patent US20160106677A1, “PHARMACEUTICAL COMPOSITION AND USES THEREOF” (Boehringer Ingelheim International GmbH, priority 2014, published 2016).

Test system: HbA1c
Settings: metformin on its own, in the diabetic

SMILES: CN(C)C(=N)N=C(N)N [metformin]
- average improvement in the HbA1c value: 1.0-1.5%
